Like-named read-outs stand apart in the source and are kept apart here. One block for each compound: values may come before it. *1 amine or outer side, *2 acyl side, *3 side chain or, on linkers, in order; H or OH if unused. Where a SMILES comes first, the peptide text is derived from it. [ ]: non-standard residue; d: D form. The star is where a group is joined. 5FAM = O=C1OC2(c3ccc(O)cc3Oc3cc(O)ccc32)c2ccc(C(=O)*)cc21; Quinoxaline2carbonyl = O=C(c1cnc2ccccc2n1)*; Ethylenediamine = C(CN[*:2])N[*:1]; NMeV = CN[C@H](C(=O)O)C(C)C; NMeAbu = CC[C@H](NC)C(=O)O; Abu = CC[C@H](N)C(=O)O; Dap = NC[C@H](N)C(=O)O
Assays:
Experiment in all cases: cells
Format in all cases: cell-based, human
[1] = tested on: A-549 lung carcinoma cells
Experimental: (§1) The twelve synthesized compounds were evaluated in vitro using the following four human cancer cell lines: cervical adenocarcinoma (HeLa), lung carcinoma (A-549), breast adenocarcinoma (SK-BR-3) and colon adenocarcinoma (HT-29). Cells were treated for 24 h with various concentrations of the compounds, and their cytotoxic activity was then assessed using the [3-(4,5-dimethylthiazol-2-yl)-2,5-diphenyltetrazolium] bromide (MTT) assay.[29] Analysis of the dose-response data obtained yielded IC50 (50% inhibitory concentration) values, which are detailed in Table 1.
(§2) Normally growing cells were plated at 5 × 10^3 cells per well into 96-well plates and incubated for 24 h at 37 °C to allow attachment to the surface. Samples were then added dissolved in a DMSO–PBS vehicle (less than 1% in culture medium) at a range of concentrations. Drugs were run in triplicate or greater and control wells contained appropriate percentages of vehicle. After 24 h of exposure, the antitumor effect was measured using a solution of MTT, which is bioreduced by viable cells into formazan. The formed crystals were solubilized using DMSO and the amount of formazan was measured by reading the absorbance at 570 nm. The absorbance of wells containing only the MTT reagent (the plate blank) was subtracted from all wells.
(§3) The IC50 values were determined by dose response curve analysis and statistical analysis using GraphPad Prism software version 5.0a. […]
(§4) mM L-glutamine and antibiotics.
(§5) in a humidified atmosphere containing 5% CO2. For sub-culturing, cells were detached from
(§6) 5 mL of fresh medium preheated at 37 °C. Cellular density was determined in a Neubauer

[2] = tested on: HT-29 colon adenocarcinoma cells
Experimental: as §1, §2, §3, §4, §5, §6

[3] = tested on: HeLa cervical adenocarcinoma cells
Experimental: as §1, §2, §3, §4, §5, §6

[4] = tested on: SK-BR-3 breast adenocarcinoma cells
Experimental: as §1, §2, §3, §4, §5, §6

[5] = MTT assay, 24 h exposure, run in triplicate or greater, read-out: IC50, Cervix HeLa

IC50 ([1]; Homo sapiens, A549, MTT assay, 24 h exposure, run in triplicate or greater, read-out: IC50, Lung A-549): 0.6 µM
IC50 ([2]; Homo sapiens, HT-29, MTT assay, 24 h exposure, run in triplicate or greater, read-out: IC50, Colon HT-29): 8.9 µM
IC50 ([3]; Homo sapiens, HeLa, MTT assay, 24 h exposure, run in triplicate or greater, read-out: IC50, Cervix HeLa): 5.4 µM
IC50 ([4]; Homo sapiens, SK-BR-3, MTT assay, 24 h exposure, run in triplicate or greater, read-out: IC50, Breast SK-BR-3): 0.5 µM
Compound: COc1cccc2c1C(=O)c1c(O)c3c(c(O)c1C2=O)C[C@@](O)(C(=O)CO)C[C@@H]3O[C@H]1C[C@H](N)[C@H](O)[C@H](C)O1 [Doxorubicin, reference compound]

Compound: CC[C@@H](C(=O)N(C)[C@H](C(=O)N[C@H](C(=O)N1CCC[C@@H]1C(=O)NCC(=O)N[C@H](C(=O)N(C)[C@H](C(=O)N(C)[C@@H](CC)C(=O)NCCNC(=O)c1cnc2ccccc2n1)C(C)C)C(C)C)C(C)C)C(C)C)N(C)C(=O)[C@H](CO)NC(=O)c1cnc2ccccc2n1 [RZ1] (Quinoxaline2carbonyl-S[NMeAbu][NMeV]V[dP]GV[NMeV][NMeAbu]-{Ethylenediamine-Quinoxaline2carbonyl})
IC50 ([1]; 24 h): 51.2 µM
IC50 ([2]; 24 h): 88.4 µM
IC50 ([3]; 24 h): 42.2 µM
IC50 ([4]; 24 h): 96.7 µM

Compound: CC[C@H](NC(=O)[C@H](CNC(=O)c1ccc2c(c1)C(=O)OC21c2ccc(O)cc2Oc2cc(O)ccc21)NC(=O)c1cnc2ccccc2n1)C(=O)N[C@H](C(=O)N[C@H](C(=O)N1CCC[C@@H]1C(=O)NCC(=O)N[C@H](C(=O)N[C@H](C(=O)N[C@@H](CC)C(=O)NCCNC(=O)c1cnc2ccccc2n1)C(C)C)C(C)C)C(C)C)C(C)C [RZ2CF] (Quinoxaline2carbonyl-[Dap](5FAM)[Abu]VV[dP]GVV[Abu]-{Ethylenediamine-Quinoxaline2carbonyl})
IC50 [3, 5]: 16.7 µM

Compound: CC[C@@H](C(=O)NCCNC(=O)c1cnc2ccccc2n1)N(C)C(=O)[C@H](C(C)C)N(C)C(=O)[C@@H](NC(=O)CNC(=O)[C@H]1CCCN1C(=O)[C@@H](NC(=O)[C@H](C(C)C)N(C)C(=O)[C@H](CC)N(C)C(=O)[C@@H](CO)NC(=O)c1cnc2ccccc2n1)C(C)C)C(C)C [RZ3] (Quinoxaline2carbonyl-[dS][NMeAbu][NMeV]V[dP]GV[NMeV][NMeAbu]-{Ethylenediamine-Quinoxaline2carbonyl})
IC50 ([1]; 24 h): 65.8 µM
IC50 ([2]; 24 h): 72.3 µM
IC50 ([3]; 24 h): 93.8 µM
IC50 ([4]; 24 h): 98.1 µM

Compound: CC[C@H](NC(=O)[C@@H](NC(=O)[C@@H](NC(=O)CNC(=O)[C@H]1CCCN1C(=O)[C@@H](NC(=O)[C@@H](NC(=O)[C@H](CC)NC(=O)[C@@H](CO)NC(=O)c1cnc2ccccc2n1)C(C)C)C(C)C)C(C)C)C(C)C)C(=O)NCCNC(=O)c1cnc2ccccc2n1 [RZ4] (Quinoxaline2carbonyl-[dS][Abu]VV[dP]GVV[Abu]-{Ethylenediamine-Quinoxaline2carbonyl})
IC50 ([1]; MTT assay, 24 h exposure, run in triplicate or greater, read-out: IC50, Lung A-549): 34.9 µM
IC50 ([2]; MTT assay, 24 h exposure, run in triplicate or greater, read-out: IC50, Colon HT-29): 75 µM
IC50 [3, 5]: 30.9 µM
IC50 ([4]; MTT assay, 24 h exposure, run in triplicate or greater, read-out: IC50, Breast SK-BR-3): > 100 µM

Compound: CC[C@@H](C(=O)N(C)[C@H](C(=O)N[C@H](C(=O)N1CCC[C@@H]1C(=O)NCC(=O)N[C@H](C(=O)N(C)[C@H](C(=O)N(C)[C@@H](CC)C(=O)NCCNC(=O)c1cnc2ccccc2n1)C(C)C)[C@@H](C)O)[C@@H](C)O)C(C)C)N(C)C(=O)[C@H](CO)NC(=O)c1cnc2ccccc2n1 [RZ5] (Quinoxaline2carbonyl-S[NMeAbu][NMeV]T[dP]GT[NMeV][NMeAbu]-{Ethylenediamine-Quinoxaline2carbonyl})
IC50 ([1]; 24 h): 70.7 µM
IC50 ([2]; 24 h): 84.8 µM
IC50 ([3]; 24 h): > 100 µM
IC50 ([4]; 24 h): 84.6 µM

Compound: CC[C@H](NC(=O)[C@H](CO)NC(=O)c1cnc2ccccc2n1)C(=O)N[C@H](C(=O)N[C@H](C(=O)N1CCC[C@@H]1C(=O)NCC(=O)N[C@H](C(=O)N[C@H](C(=O)N[C@@H](CC)C(=O)NCCNC(=O)c1cnc2ccccc2n1)C(C)C)[C@@H](C)O)[C@@H](C)O)C(C)C [RZ6] (Quinoxaline2carbonyl-S[Abu]VT[dP]GTV[Abu]-{Ethylenediamine-Quinoxaline2carbonyl})
IC50 ([1]; 24 h): 84.5 µM
IC50 ([2]; 24 h): 83.1 µM
IC50 ([3]; 24 h): 45.6 µM
IC50 ([4]; 24 h): 55.3 µM

Compound: CC[C@@H](C(=O)NCCNC(=O)c1cnc2ccccc2n1)N(C)C(=O)[C@H](C(C)C)N(C)C(=O)[C@@H](NC(=O)CNC(=O)[C@H]1CCCN1C(=O)[C@@H](NC(=O)[C@H](C(C)C)N(C)C(=O)[C@H](CC)N(C)C(=O)[C@@H](CO)NC(=O)c1cnc2ccccc2n1)[C@@H](C)O)[C@@H](C)O [RZ7] (Quinoxaline2carbonyl-[dS][NMeAbu][NMeV]T[dP]GT[NMeV][NMeAbu]-{Ethylenediamine-Quinoxaline2carbonyl})
IC50 ([1]; 24 h): 72.8 µM
IC50 ([2]; 24 h): 90.7 µM
IC50 ([3]; 24 h): 84.5 µM
IC50 ([4]; 24 h): > 100 µM

Compound: CC[C@H](NC(=O)[C@@H](NC(=O)[C@@H](NC(=O)CNC(=O)[C@H]1CCCN1C(=O)[C@@H](NC(=O)[C@@H](NC(=O)[C@H](CC)NC(=O)[C@@H](CO)NC(=O)c1cnc2ccccc2n1)C(C)C)[C@@H](C)O)[C@@H](C)O)C(C)C)C(=O)NCCNC(=O)c1cnc2ccccc2n1 [RZ8] (Quinoxaline2carbonyl-[dS][Abu]VT[dP]GTV[Abu]-{Ethylenediamine-Quinoxaline2carbonyl})
IC50 ([1]; 24 h): 23.4 µM
IC50 ([2]; 24 h): 39.8 µM
IC50 ([3]; 24 h): 37.1 µM
IC50 ([4]; 24 h): 44.5 µM

Compound: CC[C@H](C)[C@H](NC(=O)CNC(=O)[C@H]1CCCN1C(=O)[C@@H](NC(=O)[C@H](C(C)C)N(C)C(=O)[C@H](CC)N(C)C(=O)[C@H](CO)NC(=O)c1cnc2ccccc2n1)[C@@H](C)CC)C(=O)N(C)[C@H](C(=O)N(C)[C@@H](CC)C(=O)NCCNC(=O)c1cnc2ccccc2n1)C(C)C [RZ9] (Quinoxaline2carbonyl-S[NMeAbu][NMeV]I[dP]GI[NMeV][NMeAbu]-{Ethylenediamine-Quinoxaline2carbonyl})
IC50 ([1]; 24 h): 60.9 µM
IC50 ([2]; 24 h): 84.4 µM
IC50 ([3]; 24 h): 50.9 µM
IC50 ([4]; 24 h): 90.6 µM

Compound: CC[C@H](NC(=O)[C@H](CO)NC(=O)c1cnc2ccccc2n1)C(=O)N[C@H](C(=O)N[C@H](C(=O)N1CCC[C@@H]1C(=O)NCC(=O)N[C@H](C(=O)N[C@H](C(=O)N[C@@H](CC)C(=O)NCCNC(=O)c1cnc2ccccc2n1)C(C)C)[C@@H](C)CC)[C@@H](C)CC)C(C)C [RZ10] (Quinoxaline2carbonyl-S[Abu]VI[dP]GIV[Abu]-{Ethylenediamine-Quinoxaline2carbonyl})
IC50 ([1]; 24 h): 26.8 µM
IC50 ([2]; 24 h): 53.8 µM
IC50 ([3]; 24 h): 14.1 µM
IC50 ([4]; 24 h): 62.1 µM

Compound: CC[C@H](C)[C@H](NC(=O)CNC(=O)[C@H]1CCCN1C(=O)[C@@H](NC(=O)[C@H](C(C)C)N(C)C(=O)[C@H](CC)N(C)C(=O)[C@@H](CO)NC(=O)c1cnc2ccccc2n1)[C@@H](C)CC)C(=O)N(C)[C@H](C(=O)N(C)[C@@H](CC)C(=O)NCCNC(=O)c1cnc2ccccc2n1)C(C)C [RZ11] (Quinoxaline2carbonyl-[dS][NMeAbu][NMeV]I[dP]GI[NMeV][NMeAbu]-{Ethylenediamine-Quinoxaline2carbonyl})
IC50 ([1]; 24 h): 96.3 µM
IC50 ([2]; 24 h): 64.7 µM
IC50 ([3]; 24 h): 24.3 µM
IC50 ([4]; 24 h): 78.9 µM

Compound: CC[C@H](NC(=O)[C@@H](NC(=O)[C@@H](NC(=O)CNC(=O)[C@H]1CCCN1C(=O)[C@@H](NC(=O)[C@@H](NC(=O)[C@H](CC)NC(=O)[C@@H](CO)NC(=O)c1cnc2ccccc2n1)C(C)C)[C@@H](C)CC)[C@@H](C)CC)C(C)C)C(=O)NCCNC(=O)c1cnc2ccccc2n1 [RZ12] (Quinoxaline2carbonyl-[dS][Abu]VI[dP]GIV[Abu]-{Ethylenediamine-Quinoxaline2carbonyl})
IC50 ([1]; 24 h): 82.2 µM
IC50 ([2]; 24 h): > 100 µM
IC50 ([3]; 24 h): 55.4 µM
IC50 ([4]; 24 h): 71.6 µM
